# pIC50: −log10 of the molar value.
# Target: T1, ATM (Homo sapiens, UniProt Q13315)
# T1 construct: detecting phosphorylation of Chk2 in a human non-small cell lung cancer cell line NCI-H460 (ATCC company); host or cells: NCI-H460 human non-small cell lung cancer cells
# Test: ATM inhibition test (phosphorylation of Chk2 generated by ionizing radiation, AlphaScreen SureFire)
# Assay type: cell-based
# Settings: phosphorylated Chk2 in NCI-H460 cells, ionizing radiation 8Gy, 1 hour after test compound treatment; read-out: ATM inhibitory activity
# Procedure, shortened: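 NCI-H460 cells, compound 1 h pre-treatment, 8Gy IR, further 1 h at 37° C in 5% CO2. Read-out: phospho-Chk2 via AlphaScreen SureFire. % inhibition relative to IR-induced signal window (irradiated vs non-irradiated drug-free wells).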
# T1 sequence (Q13315 whole entry): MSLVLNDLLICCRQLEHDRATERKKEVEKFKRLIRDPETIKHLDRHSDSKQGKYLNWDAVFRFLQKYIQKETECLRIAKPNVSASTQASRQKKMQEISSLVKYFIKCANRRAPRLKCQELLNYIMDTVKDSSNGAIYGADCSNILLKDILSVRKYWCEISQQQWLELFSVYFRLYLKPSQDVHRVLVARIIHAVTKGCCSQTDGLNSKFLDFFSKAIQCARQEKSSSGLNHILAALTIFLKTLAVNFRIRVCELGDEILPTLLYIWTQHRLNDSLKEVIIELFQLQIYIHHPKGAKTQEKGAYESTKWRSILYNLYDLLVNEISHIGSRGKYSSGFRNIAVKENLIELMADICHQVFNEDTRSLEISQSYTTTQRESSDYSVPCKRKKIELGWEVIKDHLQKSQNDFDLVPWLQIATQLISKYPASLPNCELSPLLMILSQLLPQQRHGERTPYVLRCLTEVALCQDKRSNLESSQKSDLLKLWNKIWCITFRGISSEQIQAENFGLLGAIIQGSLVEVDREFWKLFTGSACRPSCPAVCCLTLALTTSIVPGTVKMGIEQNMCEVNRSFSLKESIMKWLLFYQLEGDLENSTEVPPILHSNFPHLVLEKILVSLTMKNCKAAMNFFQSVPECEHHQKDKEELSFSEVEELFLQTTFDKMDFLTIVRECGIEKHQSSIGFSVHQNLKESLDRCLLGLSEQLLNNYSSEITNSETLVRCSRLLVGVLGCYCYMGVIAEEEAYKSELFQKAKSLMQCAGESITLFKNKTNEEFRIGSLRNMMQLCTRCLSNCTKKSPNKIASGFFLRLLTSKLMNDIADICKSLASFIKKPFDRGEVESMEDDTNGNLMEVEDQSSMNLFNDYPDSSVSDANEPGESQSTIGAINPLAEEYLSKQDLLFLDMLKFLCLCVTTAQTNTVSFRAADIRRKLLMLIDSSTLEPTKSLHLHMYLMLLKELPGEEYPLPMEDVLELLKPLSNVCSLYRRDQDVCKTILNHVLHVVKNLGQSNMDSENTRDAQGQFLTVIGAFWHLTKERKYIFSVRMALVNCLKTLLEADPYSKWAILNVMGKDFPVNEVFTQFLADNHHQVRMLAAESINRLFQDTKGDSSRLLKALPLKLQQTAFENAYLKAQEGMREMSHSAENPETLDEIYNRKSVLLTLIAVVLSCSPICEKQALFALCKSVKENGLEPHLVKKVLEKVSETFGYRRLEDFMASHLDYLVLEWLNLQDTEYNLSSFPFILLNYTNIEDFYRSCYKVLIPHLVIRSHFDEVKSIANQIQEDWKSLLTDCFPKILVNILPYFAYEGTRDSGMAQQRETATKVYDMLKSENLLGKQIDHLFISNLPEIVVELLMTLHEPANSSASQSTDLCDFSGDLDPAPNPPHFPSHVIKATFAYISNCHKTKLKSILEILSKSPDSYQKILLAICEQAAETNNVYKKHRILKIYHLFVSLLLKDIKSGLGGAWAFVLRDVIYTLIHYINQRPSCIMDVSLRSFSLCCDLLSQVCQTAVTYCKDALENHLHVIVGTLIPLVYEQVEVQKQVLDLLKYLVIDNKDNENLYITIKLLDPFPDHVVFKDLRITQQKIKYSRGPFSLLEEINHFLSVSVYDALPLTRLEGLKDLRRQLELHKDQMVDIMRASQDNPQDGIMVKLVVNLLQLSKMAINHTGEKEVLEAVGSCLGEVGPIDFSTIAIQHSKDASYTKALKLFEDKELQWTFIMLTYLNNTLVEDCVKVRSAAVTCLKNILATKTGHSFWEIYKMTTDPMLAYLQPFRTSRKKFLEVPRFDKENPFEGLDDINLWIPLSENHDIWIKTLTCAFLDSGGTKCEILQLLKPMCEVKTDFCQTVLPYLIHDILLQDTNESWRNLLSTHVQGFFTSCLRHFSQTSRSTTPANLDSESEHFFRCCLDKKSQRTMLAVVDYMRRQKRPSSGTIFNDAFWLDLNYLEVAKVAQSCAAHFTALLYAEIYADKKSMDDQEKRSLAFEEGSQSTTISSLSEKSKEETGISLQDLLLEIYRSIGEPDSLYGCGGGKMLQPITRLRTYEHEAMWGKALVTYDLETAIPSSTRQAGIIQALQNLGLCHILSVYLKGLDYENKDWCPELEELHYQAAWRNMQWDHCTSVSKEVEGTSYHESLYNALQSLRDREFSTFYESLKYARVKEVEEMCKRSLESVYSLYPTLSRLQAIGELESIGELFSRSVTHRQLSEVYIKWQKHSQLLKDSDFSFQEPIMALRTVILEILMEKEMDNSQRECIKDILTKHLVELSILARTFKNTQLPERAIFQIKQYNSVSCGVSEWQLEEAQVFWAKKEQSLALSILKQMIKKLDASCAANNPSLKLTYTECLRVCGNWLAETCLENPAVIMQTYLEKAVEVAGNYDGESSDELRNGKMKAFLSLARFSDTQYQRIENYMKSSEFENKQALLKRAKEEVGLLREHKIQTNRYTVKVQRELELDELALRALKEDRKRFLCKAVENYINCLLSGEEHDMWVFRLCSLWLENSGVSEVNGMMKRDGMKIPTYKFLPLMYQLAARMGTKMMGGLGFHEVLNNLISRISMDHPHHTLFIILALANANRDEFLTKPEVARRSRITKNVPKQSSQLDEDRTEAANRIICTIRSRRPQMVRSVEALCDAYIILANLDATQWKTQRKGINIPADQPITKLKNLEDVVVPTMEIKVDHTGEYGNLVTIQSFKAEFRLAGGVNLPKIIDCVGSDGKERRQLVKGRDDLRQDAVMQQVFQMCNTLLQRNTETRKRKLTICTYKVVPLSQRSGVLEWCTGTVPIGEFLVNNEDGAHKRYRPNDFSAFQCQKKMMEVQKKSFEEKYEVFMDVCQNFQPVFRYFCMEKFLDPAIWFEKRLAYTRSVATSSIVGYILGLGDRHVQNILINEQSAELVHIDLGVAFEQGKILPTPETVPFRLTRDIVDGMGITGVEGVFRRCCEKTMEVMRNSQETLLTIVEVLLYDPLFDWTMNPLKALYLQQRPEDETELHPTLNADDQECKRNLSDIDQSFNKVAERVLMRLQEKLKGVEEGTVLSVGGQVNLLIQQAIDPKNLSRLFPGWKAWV
row,Compound,pIC50
1,"O=c1cc(N2CCOCC2)cc(-c2cccc3c2Sc2ccc(NCCCN4CCOCC4)cc2S3)[nH]1 [Example 1-9-3, 4-Morpholino-6-(7-((3-morpholinopropyl)amino)thianthren-1-yl)pyridin-2(1H)-one]",> 7.00
2,"O=c1cc(N2CCOCC2)cc(-c2cccc3c2Sc2ccc(NCCCCN4CCOCC4)cc2S3)[nH]1 [Example 1-9-4, 4-Morpholino-6-(7-((4-morpholinobutyl)amino)thianthren-1-yl)pyridin-2(1H)-one]",6.30 to 7.00
3,"O=c1cc(N2CCOCC2)cc(-c2cccc3c2Sc2ccc(NCCN4CCC(F)(F)CC4)cc2S3)[nH]1 [Example 1-10-1, 6-(7-((2-(4,4-Difluoropiperidin-1-yl)ethyl)amino)thianthren-1-yl)-4-morpholinopyridin-2(1H)-one]",6.30 to 7.00
4,"O=c1cc(N2CCOCC2)cc(-c2cccc3c2Sc2ccc(NCCN4CCC(F)(F)C4)cc2S3)[nH]1 [Example 1-10-2, 6-(7-((2-(3,3-Difluoropyrrolidin-1-yl)ethyl)amino)thianthren-1-yl)-4-morpholinopyridin-2(1H)-one]",6.30 to 7.00
5,"O=c1cc(N2CCOCC2)cc(-c2cccc3c2Sc2ccc(NCCN4CC(F)(F)C4)cc2S3)[nH]1 [Example 1-10-3, 6-(7-((2-(3,3-Difluoroazetidin-1-yl)ethyl)amino)thianthren-1-yl)-4-morpholinopyridin-2(1H)-one]",6.30 to 7.00
6,"CN(C)CCNc1ccc2c(c1)Sc1cccc(-c3cc(N4CCOCC4)cc(=O)[nH]3)c1S2 [Example 1-10-4, 6-(7-((2-(Dimethylamino)ethyl)amino)thianthren-1-yl)-4-morpholinopyridin-2(1H)-one]",6.30 to 7.00
7,"O=c1cc(N2CCOCC2)cc(-c2cccc3c2Sc2ccc(NCCN4CCCOCC4)cc2S3)[nH]1 [Example 1-10-6, 6-(7-((2-(1,4-Oxazepan-4-yl)ethyl)amino)thianthren-1-yl)-4-morpholinopyridin-2(1H)-one]",6.30 to 7.00
8,"O=c1cc(N2CCOCC2)cc(-c2cccc3c2Sc2ccc(NCCN4CCC(O)CC4)cc2S3)[nH]1 [Example 1-10-8, 6-(7-((2-(4-Hydroxypiperidin-1-yl)ethyl)amino)thianthren-1-yl)-4-morpholino pyridin-2(1H)-one]",5.70 to 6.30

# Other lines, results leading:
row,pIC50,Compound
1,6.30 to 7.00,O=c1cc(N2CCOCC2)cc(-c2cccc3c2Sc2ccc(NCCN4CCCC4)cc2S3)[nH]1 [Example 1-10-11]
2,6.30 to 7.00,"COCCN(C)CCNc1ccc2c(c1)Sc1cccc(-c3cc(N4CCOCC4)cc(=O)[nH]3)c1S2 [Example 1-10-12, 6-(7-((2-((2-Methoxyethyl) (methyl)amino)ethyl)amino)thianthren-1-y1)-4-morpholino pyridin-2(1H)-one]"
3,5.70 to 6.30,"CC(C)(C)NCCNc1ccc2c(c1)Sc1cccc(-c3cc(N4CCOCC4)cc(=O)[nH]3)c1S2 [Example 1-10-13, 6-(7-((2-(tert-Butylamino)ethyl)amino)thianthren-1-yl)-4-morpholino pyridin-2 (1H)-one]"
4,6.30 to 7.00,"COC1CCN(CCNc2ccc3c(c2)Sc2cccc(-c4cc(N5CCOCC5)cc(=O)[nH]4)c2S3)CC1 [Example 1-10-15, 6-(7-((2-(4-Methoxypiperidin-1-yl)ethyl)amino)thianthren-1-yl)-4-morpholino pyridin-2(1H)-one]"
5,6.30 to 7.00,"O=c1cc(N2CCOCC2)cc(-c2cccc3c2Sc2ccc(NCC4CCN(Cc5cccnc5)CC4)cc2S3)[nH]1 [Example 1-11, 4-morpholino-6-(7-(((1-(pyridin-3-ylmethyl)piperidin-4-yl)methyl)amino)thianthren-1-yl)pyridin-2(1H)-one]"
6,6.30 to 7.00,"O=c1cc(N2CCOCC2)cc(-c2cccc3c2Sc2ccc(NCc4ccsc4)cc2S3)[nH]1 [Example 1-12-1, 4-morpholino-6-(7-((thiophen-3-ylmethyl)amino)thianthren-1-yl)pyridin-2(1H)-one]"
7,6.30 to 7.00,"COc1cc(CNc2ccc3c(c2)Sc2cccc(-c4cc(N5CCOCC5)cc(=O)[nH]4)c2S3)cnc1OC [Example 1-12-7, 6-(7-(((5,6-Dimethoxypyridin-3-yl)methyl)amino)thianthren-1-yl)-4-morpholino pyridin-2(1H)-one]"
